Data as given in patent US20060166985A1, “Pyrrolydin-2-one derivatives as inhibitors of thrombin and factor xa” (priority 2002, published 2006).

The compounds below were run against human Thrombin (Homo sapiens, UniProt P00734) (assay: In vitro assay for inhibition of Thrombin (chromogenic or fluorogenic assay)). Conditions: Example 2 chromogenic assay, other Examples fluorogenic assay, read-out: thrombin inhibitory Ki.
Assay type: biochemical
Method: Thrombin inhibitory activity is measured by the ability to inhibit human α-thrombin in a chromogenic assay using N-p-tosyl-gly-pro-lys p-nitroanilide as the chromogenic substrate, or in a fluorogenic assay using Rhodamine 110, bis-(CBZ-L-valyl-L-prolyl-L-arginine amide) as the fluorogenic substrate.
The compound was diluted from a 10 mM stock solution in dimethylsulfoxide at appropriate concentrations. Assay was performed at room temperature using buffer consisting of: 50 mM HEPES, 150 mM NaCl, 5 mM CaCl2, 0.1% PEG, pH 7.4. containing human Thrombin (final conc. of 1 nM). Compound and enzyme were preincubated for 15 min prior to addition of the substrate (final conc. of 100 μM). The reaction was stopped after 30 min with the addition of soybean trypsin inhibitor or H-D-PHE-PRO-ARG-Chloromethylketone. […] To obtain IC50 values the data were analysed using ActivityBase® and XLfit®.
Compounds were diluted from a 10 mM stock solution in dimethylsulfoxide at appropriate concentrations. Assay was performed at room temperature using buffer consisting of: 50 mM HEPES, 150 mM NaCl, 5 mM CaCl2, 0.1% PEG, pH 7.4. containing human Thrombin (final conc. Of 0.2 nM). Compound and enzyme were preincubated for 15 min prior to addition of the substrate (final conc. of 10 μM). The reaction was stopped after 3 hrs with the addition of H-D-PHE-PRO-ARG-Chloromethylketone. […] To obtain IC50 values the data were analysed using ActivityBase® and XLfit®.
`C[C@@H](C(=O)N1CCOCC1)N1CC[C@H](NS(=O)(=O)/C=C(/c2ccc(Cl)s2)C(F)(F)F)C1=O` [Example 41, (1E)-2-(5-chlorothien-2-yl)-3,3,3-trifluoro-N-{(3S)-1-[(1S)-1-methyl-2-morpholin-4-yl-2-oxoethyl]-2-oxopyrrolidin-3-yl}prop-1-ene-1-sulfonamide] was tested, and the Ki was less than 100 nM.
In the case of `C[C@@H](C(=O)N1CCOCC1)N1CC[C@H](NS(=O)(=O)CCc2ccc(Cl)cc2Cl)C1=O` [Example 42, 2-(2,4-dichlorophenyl)-N-{(3S)-1-[(1S)-1-methyl-2-morpholin-4-yl-2-oxoethyl]-2-oxopyrrolidin-3-yl}ethanesulfonamide], the Ki is reported as less than 200 nM.
`CC(C)[C@@H](C(=O)N1CCOCC1)N1CC[C@H](NS(=O)(=O)CCc2ccc(Cl)cc2)C1=O` [Example 45, 2-(4-chlorophenyl)-N-{(3S)-1-[(1S)-2-methyl-1-(morpholin-4-ylcarbonyl)propyl]-2-oxopyrrolidin-3-yl}ethanesulfonamide] was tested, and the Ki was less than 50 nM.
With `O=C(O)C[C@@H](C(=O)N1CCOCC1)N1CC[C@H](NS(=O)(=O)CCc2ccc(Cl)s2)C1=O` [Example 46] the Ki was less than 200 nM.
In the case of `C[C@@H](C(=O)N1CCOCC1)N1CC[C@H](NS(=O)(=O)CCc2ccc(Cl)cn2)C1=O` [Example 47, 2-(5-chloro-2-pyridinyl)-N-{(3S)-1-[(1S)-1-methyl-2-(4-morpholinyl)-2-oxoethyl]-2-oxo-3-pyrrolidinyl}ethanesulfonamide], the Ki is reported as less than 100 nM.
Work on `CC[C@H](C)[C@@H](C(=O)N1CCOCC1)N1CC[C@H](NS(=O)(=O)CCc2ccc(Cl)cn2)C1=O` [Example 48, 2-(5-chloro-2-pyridinyl)-N-{(3S)-1-[(1S,2S)-2-methyl-1-(4-morpholinylcarbonyl)butyl]-2-oxo-3-pyrrolidinyl}ethanesulfonamide] yielded a Ki of less than 25 nM.
Compound `CCOC[C@@H](C(=O)N1CCOCC1)N1CC[C@H](NS(=O)(=O)CCc2ccc(Cl)cn2)C1=O` [Example 49, 2-(5-chloro-2-pyridinyl)-N-{(3S)-1-[(1S)-1-[(ethyloxy)methyl]-2-(4-morpholinyl)-2-oxoethyl]-2-oxo-3-pyrrolidinyl}ethanesulfonamide] has a Ki of less than 25 nM.
`COC[C@@H](C(=O)N1CCOCC1)N1CC[C@H](NS(=O)(=O)CCc2ccc(Cl)cn2)C1=O` [Example 50, 2-(5-chloro-2-pyridinyl)-N-{(3S)-1-[(1S)-1-[(methyloxy)methyl]-2-(4-morpholinyl)-2-oxoethyl]-2-oxo-3-pyrrolidinyl}ethanesulfonamide] gave a Ki of less than 200 nM.
`CC[C@H](C)[C@@H](C(=O)N1CCOCC1)N1CC[C@H](NS(=O)(=O)CC(=O)c2ccc(Cl)cc2)C1=O` [Example 51, 2-(4-chlorophenyl)-N-{(3S)-1-[(1S,2S)-2-methyl-1-(4-morpholinylcarbonyl)butyl]-2-oxo-3-pyrrolidinyl}-2-oxoethanesulfonamide] gave a Ki of less than 50 nM.
In the case of `COC[C@@H](C(=O)N1CCOCC1)N1CC[C@H](NS(=O)(=O)CC(=O)c2ccc(Cl)cc2)C1=O` [Example 52], the Ki is reported as less than 50 nM.
`CC[C@H](C)[C@@H](C(=O)N1CCOCC1)N1CC[C@H](NS(=O)(=O)CC(O)c2ccc(Cl)cc2)C1=O` (stereo partly drawn) [Example 53, 2-(4-chlorophenyl)-2-hydroxy-N-{(3S)-1-[(1S,2S)-2-methyl-1-(4-morpholinylcarbonyl)butyl]-2-oxo-3-pyrrolidinyl}ethanesulfonamide] showed a Ki of less than 100 nM.
Work on `CC(CS(=O)(=O)N[C@H]1CCN([C@@H](C)C(=O)N2CCOCC2)C1=O)c1ccc(Cl)s1` (stereo partly drawn) [Example 54, 2-(5-chloro-2-thienyl)-N-{(3S)-1-[(1S)-1-methyl-2-(4-morpholinyl)-2-oxoethyl]-2-oxo-3-pyrrolidinyl}-1-propanesulfonamide] yielded a Ki of less than 100 nM.
In the case of `CC[C@H](C)[C@@H](C(=O)N1CCOCC1)N1CC[C@H](NS(=O)(=O)CC(C)c2ccc(Cl)s2)C1=O` (stereo partly drawn) [Example 57, 2-(5-chloro-2-thienyl)-N-{(3S)-1-[(1S,2S)-2-methyl-1-(4-morpholinylcarbonyl)butyl]-2-oxo-3-pyrrolidinyl}-1-propanesulfonamide], the Ki is reported as less than 25 nM.
With `COC[C@@H](C(=O)N1CCOCC1)N1CC[C@H](NS(=O)(=O)CC(C)c2ccc(Cl)s2)C1=O` (stereo partly drawn) [Example 58, 2-(5-chloro-2-thienyl)-N-{(3S)-1-[(1S)-1-[(methyloxy)methyl]-2-(4-morpholinyl)-2-oxoethyl]-2-oxo-3-pyrrolidinyl}-1-propanesulfonamide] the Ki was less than 100 nM.
Compound `CCOC[C@@H](C(=O)N1CCOCC1)N1CC[C@H](NS(=O)(=O)CC(C)c2ccc(Cl)s2)C1=O` (stereo partly drawn) [Example 59, 2-(5-chloro-2-thienyl)-N-{(3S)-1-[(1S)-1-[(ethyloxy)methyl]-2-(4-morpholinyl)-2-oxoethyl]-2-oxo-3-pyrrolidinyl}-1-propanesulfonamide] has a Ki of less than 25 nM.
`Cc1noc(C[C@@H](C(=O)N2CCOCC2)N2CC[C@H](NS(=O)(=O)CC(C)c3ccc(Cl)s3)C2=O)n1` (stereo partly drawn) [Example 60, 2-(5-chloro-2-thienyl)-N-{(3S)-1-[(1S)-1-[(3-methyl-1,2,4-oxadiazol-5-yl)methyl]-2-(4-morpholinyl)-2-oxoethyl]-2-oxo-3-pyrrolidinyl}-1-propanesulfonamide] showed a Ki of less than 50 nM.
Compound `C[C@@H](C(=O)N1CCOCC1)N1CC[C@H](NS(=O)(=O)CC2CCc3cc(Cl)ccc32)C1=O` (stereo partly drawn) [Example 61, 1-(5-chloro-2,3-dihydro-1H-inden-1-yl)-N-{(3S)-1-[(1S)-1-methyl-2-(4-morpholinyl)-2-oxoethyl]-2-oxo-3-pyrrolidinyl}methanesulfonamide] has a Ki of less than 100 nM.
`COC[C@@H](C(=O)N1CCOCC1)N1CC[C@H](NS(=O)(=O)CC2CCc3cc(Cl)ccc32)C1=O` (stereo partly drawn) [Example 62, 1-(5-chloro-2,3-dihydro-1H-inden-1-yl)-N-{(3S)-1-[(1S)-1-[(methyloxy)methyl]-2-(4-morpholinyl)-2-oxoethyl]-2-oxo-3-pyrrolidinyl}methanesulfonamide] gave a Ki of less than 200 nM.
In the case of `CC[C@H](C)[C@@H](C(=O)N1CCOCC1)N1CC[C@H](NS(=O)(=O)CC2CCc3cc(Cl)ccc32)C1=O` (stereo partly drawn) [Example 63, 1-(5-chloro-2,3-dihydro-1H-inden-1-yl)-N-{(3S)-1-[(1S,2S)-2-methyl-1-(4-morpholinylcarbonyl)butyl]-2-oxo-3-pyrrolidinyl}methanesulfonamide], the Ki is reported as less than 50 nM.
Work on `C[C@@H](C(=O)N1CCOCC1)N1CC[C@H](NS(=O)(=O)CC2COc3cc(Cl)ccc32)C1=O` (stereo partly drawn) [Example 64, 1-(6-chloro-2,3-dihydro-1-benzofuran-3-yl)-N-{(3S)-1-[(1S)-1-methyl-2-(4-morpholinyl)-2-oxoethyl]-2-oxo-3-pyrrolidinyl}methanesulfonamide] yielded a Ki of less than 100 nM.
With `COC[C@@H](C(=O)N1CCOCC1)N1CC[C@H](NS(=O)(=O)CC2COc3cc(Cl)ccc32)C1=O` (stereo partly drawn) [Example 65, 1-(6-chloro-2,3-dihydro-1-benzofuran-3-yl)-N-{(3S)-1-[(1S)-1-[(methyloxy)methyl]-2-(4-morpholinyl)-2-oxoethyl]-2-oxo-3-pyrrolidinyl}methanesulfonamide] the Ki was less than 100 nM.
`C[C@@H](C(=O)N1CCOCC1)N1CC[C@H](NS(=O)(=O)CC2OCc3cc(Cl)ccc32)C1=O` (stereo partly drawn) [Example 66, 1-(5-chloro-1,3-dihydro-2-benzofuran-1-yl)-N-{(3S)-1-[(1S)-1-methyl-2-(4-morpholinyl)-2-oxoethyl]-2-oxo-3-pyrrolidinyl}methanesulfonamide] gave a Ki of less than 50 nM.
`O=C(C(C1CCOCC1)N1CC[C@H](NS(=O)(=O)CCc2ccc(Cl)s2)C1=O)N1CCOCC1` (stereo partly drawn) [Example 67, 2-(5-chloro-2-thienyl)-N-{(3S)-1-[2-(4-morpholinyl)-2-oxo-1-(tetrahydro-2H-pyran-4-yl)ethyl]-2-oxo-3-pyrrolidinyl}ethanesulfonamide] showed a Ki of less than 200 nM.
With `COC[C@@H](C(=O)N1CCOCC1)N1CC[C@H](NS(=O)(=O)C[C@@H]2CCc3cc(Cl)ccc32)C1=O` [Example 68, 1-[(1R)-5-chloro-2,3-dihydro-1H-inden-1-yl]-N-{(3S)-1-[(1S)-1-[(methyloxy)methyl]-2-(4-morpholinyl)-2-oxoethyl]-2-oxo-3-pyrrolidinyl}methanesulfonamide] the Ki was less than 50 nM.
Work on `O=C([C@H](c1ccccc1)N1CC[C@H](NS(=O)(=O)CCc2ccc(Cl)s2)C1=O)N1CCOCC1` [Example 69, 2-(5-chloro-2-thienyl)-N-{(3S)-1-[(1S)-2-(4-morpholinyl)-2-oxo-1-phenylethyl]-2-oxo-3-pyrrolidinyl}ethanesulfonamide] yielded a Ki of less than 100 nM.
In the case of `O=C([C@H](Cc1ccc(F)cc1)N1CC[C@H](NS(=O)(=O)CCc2ccc(Cl)s2)C1=O)N1CCOCC1` [Example 70, 2-(5-chloro-2-thienyl)-N-{(3S)-1-[(1S)-1-[(4-fluorophenyl)methyl]-2-(4-morpholinyl)-2-oxoethyl]-2-oxo-3-pyrrolidinyl}ethanesulfonamide], the Ki is reported as less than 50 nM.
In the case of `O=C([C@H](Cc1cscn1)N1CC[C@H](NS(=O)(=O)CCc2ccc(Cl)s2)C1=O)N1CCOCC1` [Example 71, 2-(5-chloro-2-thienyl)-N-{(3S)-1-[(1S)-2-(4-morpholinyl)-2-oxo-1-(1,3-thiazol-4-ylmethyl)ethyl]-2-oxo-3-pyrrolidinyl)ethanesulfonamide], the Ki is reported as less than 50 nM.
With `O=C([C@H](Cc1cscn1)N1CC[C@H](NS(=O)(=O)CCc2ccc(Cl)cc2)C1=O)N1CCOCC1` [Example 72, 2-(4-chlorophenyl)-N-{(3S)-1-[(1S)-2-(4-morpholinyl)-2-oxo-1-(1,3-thiazol-4-ylmethyl)ethyl]-2-oxo-3-pyrrolidinyl}ethanesulfonamide] the Ki was less than 200 nM.
